Data on one molecule can be found in PMC12203428, “Discovery of Clonixeril as a Sub-Femtomolar Modulator of the Human STING Receptor” (ACS Central Science, 2025).

The subject of data set [1] is IFN-β expression in HEK293 cells. In words: HEK293 real-time qPCR for IFN-β.
Description: IFN-β expression levels were measured using real-time qPCR.
HEK293 cells were seeded at 700,000 cells per 60 mm plate confluency and treated 36 h later.
Data set [2] concerns THP1 STING knockout cells. In words: STING knockout THP-1 luciferase assay. It is filed as cell-based, human. The conditions noted are these: WT-THP1 vs THP1 STING knockout cells. The source says:
docking algorithm to properly calculate estimated free energies of binding for the LD-protein […]
Differential Scanning Fluorimetry – Thermal Shift Experiment […]
to the endogenous ligand, 2’,3’-cGAMP, 2) unbound and 3) bound to ligands chosen by the virtual screening process for their potential to stabilize the active form of the STING molecule by binding to it. A TSA measures a protein's melting temperature (Tm), at which the protein is 50% denatured. The assay quantifies protein denaturation by measuring the increase in fluorescence of a dye that binds to hydrophobic residues exposed by unfolding of the protein.
(§1) To determine clonixeril’s hydrolytic stability and evaluate its potential as an oral drug, an aqueous solution was concentrated for analysis at 20 µM. The sample was analyzed by HPLC using an […]
(§2) The UV spectra of these peaks were compared by diode array and found to be identical with maximum absorbance at 280nm and 343nm. […]
the minor first peak matched the molecular weight of clonixin (M+H)+ and the second major peak matched the molecular weight of clonixeril (M+H)+. […] Hydrolysis of clonixeril to clonixin was measured by HPLC over seven days using a 20 µM aqueous solution. […]
Figure S4. […] (D) Quantification of luciferase assay performed using WT-THP1 and THP1 STING knockout cells in the presence and absence of clonixeril and/or 2’,3’-cGAMP. […]

Data set [3] in a line: Hydrolysis of clonixeril to clonixin by HPLC. It is filed as physicochemical. How it is done: as §1, §2
the minor first peak matched the molecular weight of clonixin (M+H)+ and the second major peak matched the molecular weight of clonixeril (M+H)+. Data was generated by measuring the ratio between the two peaks. Hydrolysis of clonixeril to clonixin was measured by HPLC over seven days using a 20 µM aqueous solution.
96.8% clonixeril (Figure S4B). Most of the hydrolysis occurred within the first two days at an average rate of […], and then slowed down to an average rate of 0.07% per hour by day seven (Figure S4B). The rate decrease correlated with an observable decrease in solution pH as a product of hydrolysis. Further samples solubilized in pH 2.00 phosphoric acid and pH 1.99 hydrochloric acid confirmed that the rate decreases to an average of 0.014% per hour over […]
a seven-day period. […]

For `Cc1c(Cl)cccc1Nc1ncccc1C(=O)OCC(O)CO` (stereo not drawn) [CXL, clonixeril], the “Inhibition of IFN-b production” value in data set [1] (1 fM, reviewer's reading of Figure 3D) is given as “about 75%”. For the same molecule, in data set [1] (all CXL treatment groups 1 fM-1 nM, 1 h before 4 μM 2′,3′-cGAMP), the “Diminution of 2′,3′-cGAMP-induced expression of IFN-β” value is given as “more than 50%”. The “Pathway dependence of effect on pIRF3 production” value in data set [2] is “affecting pIRF3 production only through the STING pathway”. The “Initial hydrolysis, clonixeril” value in data set [3] (20 µM aqueous solution) worked out at 96.8%; in data set [3] (5% sodium bicarbonate), 88.2%. Also, the “Initial hydrolysis, clonixin” value worked out at 3.2% in data set [3] (20 µM aqueous solution) and 11.8% in data set [3] (5% sodium bicarbonate). Further, the “Average rate of hydrolysis” value was 0.07 % per hour in data set [3] (aqueous solution, by day seven); 0.13 % per hour in data set [3] (aqueous solution, first two days); 0.014 % per hour in data set [3] (pH 2.00 phosphoric acid and pH 1.99 hydrochloric acid, seven-day period). Besides, the values for the Hydrolysis result in data set [3] (pH of 1.0) and in data set [3] (pH=2.0) were “relatively slow hydrolysis” and “surprisingly slow”, respectively.
